In US9724408B2, “Compositions and methods for activating stimulator of interferon gene-dependent signalling” (ADURO BIOTECH, INC., priority 2013, dated 2017):

Columns and labels:
[1] = system: OVA257-264 peptide; assay: OVA-specific CD8 T cell response after CDN-adjuvanted OVA vaccination (IFNγ ELISpot); assay type: in vivo, C57BL/6 mice; settings: subcutaneous
Description: To determine the OVA-specific CD8 T cell response induced by the different cyclic dinucleotide molecules, C57BL/6 mice (n=5) were immunized subcutaneously with 0 μg (no CDN) or 5 μg or 25 μg [G(2′,5′)pG(3′,5′)p] (mixed linkage or ML-CDG) formulated in 2% squalene-and-water with 10 μg ovalbumin protein. Seven days following the vaccination, blood was collected from each animal, and PBMCs were prepared. 5×10^4 PBMCs were stimulated overnight in an IFNγ ELISpot assay with media alone (unstimulated) or with 1 μM OVA257-264 peptide in the presence of 1×10^5 naïve splenocytes as feeder cells. IFNγ ELISpots were developed and quantified using a CTL plate reader and ImmunoSpot software.
To determine whether STING signaling is required for c[G(2′,5′)pG(3′,5′)p] (ML-CDG) to induce an OVA-specific CD8 T cell response, C57BL/6 mice (n=3 or 5) and goldenticket mice (n=3) were immunized subcutaneously with either 0 μg (no CDN) or 25 μg c[G(2′,5′)pG(3′,5′)p] (ML-CDG) formulated in 2% squalene-and-water with 10 μg ovalbumin protein. Seven days following the vaccination, blood was collected from each animal, and PBMCs were prepared. […] IFNγ ELISpots were developed and quantified using a CTL plate reader and ImmunoSpot software.

[2] = system: primary human PBMCs; assay: Secreted interferon protein in primary human PBMCs (CBA, ELISA); assay type: cell-based; settings: 24 hours, four donors
Description: (§1) To determine the levels of IFN-α, -β and -γ induced by cyclic [G(2′,5′)pG(3′,5′)p] (ML-CDG) compared to cyclic [G(3′,5′)pG(3′,5′)p] as a signature of potency to activate innate immunity, 1×10^6 primary human PBMCs isolated from four independent human donors were incubated in a 96 well U bottom plate for 30 min at 37° C., 5% CO2 with 5 or 0.5 μM of cyclic [G(3′,5′)pG(3′,5′)p] (CDG) or cyclic [G(2′,5′)pG(3′,5′)p] (ML-CDG), 1 μg/mL of Interferon Stimulatory DNA (ISD), or 4 μg/mL of Poly (I:C) utilizing Effectene transfection reagent (Qiagen) to transfer the molecules into the PBMC. ISD (Interferon Stimulating DNA) is TLR independent (Stetston, D. B. et. al. Immunity 24, 93-103, January 2006) and signals through cGAS, and is thus STING-dependent, while Poly (I:C) can signal through both TLR3 and RIG-I pathways, and are thus STING-independent. After 30 minutes, the cells were washed and replaced with RPMI media containing 10% FBS and incubated at 37° C., 5% CO2. After 6 hrs incubation, a portion of the cells were harvested and assessed by real-time quantitative RT-PCR for gene expression of the type I cytokines interferon alpha 2 (IFNA2) and interferon beta 1 (IFNB1), and the type II cytokine gene interferon gamma (IFNG). Gene expression was determined by real-time quantitative RT-PCR using the PrimePCR RNA purification and cDNA analysis system, and run on the CFX96 gene cycler (all BioRad). Normalized expression was determined for each, which accounts for the different efficiencies of PCR amplification for the target (Etarget) and the reference (Ereference), and transforms the logarithmic scaled raw data unit Cycle Threshold (CT) into the linear unit of Normalized Expression. […] To assess correlative secreted protein levels of these cytokines, supernatants were harvested from the remaining cells after 24 hours incubation and IFN-α and -γ levels were determined by Cytometric Bead Array (CBA, BD Biosciences), while IFN-β levels were determined by ELISA (PBL).

[3] = system: OVA257-264 peptide; assay: OVA-specific CD8 T cell response in goldenticket (STING−/−) mice (IFNγ ELISpot); assay type: in vivo; settings: 25 μg in 2% squalene-and-water with 10 μg ovalbumin, subcutaneous, day 7, FIG. 17
Description: To determine whether STING signaling is required for c[G(2′,5′)pG(3′,5′)p] (ML-CDG) to induce an OVA-specific CD8 T cell response, C57BL/6 mice (n=3 or 5) and goldenticket mice (n=3) were immunized subcutaneously with either 0 μg (no CDN) or 25 μg c[G(2′,5′)pG(3′,5′)p] (ML-CDG) formulated in 2% squalene-and-water with 10 μg ovalbumin protein. Seven days following the vaccination, blood was collected from each animal, and PBMCs were prepared. 5×10^4 PBMCs were stimulated overnight in an IFNγ ELISpot assay with media alone (unstimulated) or with 1 μM OVA257-264 peptide in the presence of 1×10^5 naïve splenocytes as feeder cells. IFNγ ELISpots were developed and quantified using a CTL plate reader and ImmunoSpot software.

[4] = system: primary human PBMCs; assay: Interferon gene expression in primary human PBMCs (real-time quantitative RT-PCR); assay type: cell-based; settings: 5 μM, Effectene transfection, 6 hrs, four donors, FIG. 8
Description: as §1

[5] = system: THP1-Blue™ ISG cells; assay: Type I interferon induction in THP1-Blue ISG reporter cells (QUANTI-Blue, A655); assay type: cell-based, human; settings: 100 μM for 30 minutes, supernatants after overnight incubation, FIG. 7
Description: To determine the relative level of type I interferon induced in human cells by each of the native and derivative molecules as a signature of adjuvant potency, 4×10^5 THP1-Blue™ ISG cells (a human monocyte cell line transfected with an IRF-inducible secreted embryonic alkaline phosphatase reporter gene (Invivogen) which express alkaline phosphatase under the control of a promoter comprised of five IFN-stimulated response elements) were incubated with 100 μM of cyclic [G(3′,5′)pG(3′,5′)p] (CDG), cyclic [G(2′,5′)pG(3′,5′)p] (mixed linkage, or ML-CDG), or HBSS for 30 minutes at 37° C. with 5% CO2. After 30 minutes, cells were washed and plated in 96-well dish in RPMI media containing 10% FBS, and incubated at 37° C. with 5% CO2. Cell culture supernatants from each sample were collected after overnight incubation, and 20 μL of the cell culture supernatants was added to 180 μL QUANTI-Blue reagent (Invivogen) and incubated for 45 minutes to evaluate type I interferon protein levels. Readings at Absorbance 655 nm were taken every 3 minutes using a Versa Max kinetic spectrophotometer (Molecular Diagnostics).
[…]. After 30 minutes, cells were washed and plated in 96-well dish in RPMI media containing 10% FBS, and incubated at 37° C. with 5% CO2. Cell culture supernatants from each sample were collected after overnight incubation, and 20 μL of the cell culture supernatants was added to 180 μL QUANTI-Blue reagent (Invivogen) and incubated for 45 minutes. Readings at Absorbance 655 nm were taken at 15 minutes using a SpectraMax spectrophotometer (Molecular Diagnostics).
The induction of type I interferon in human cells was measured to evaluate the potency of untreated and phosphodiesterase-treated oxo, Rp monothio and Rp, Rp dithio derivatives. […]. After 30 minutes, cells were washed and plated in a 96-well dish in RPMI media containing 10% FBS, and incubated at 37° C. with 5% CO2. Cell culture supernatants from each sample were collected after 16 hr incubation, and 20 μL of the cell culture supernatants was added to 180 μL QUANTI-Blue reagent (Invivogen) and incubated for 25 minutes to evaluate type I interferon protein levels. Readings at Absorbance 655 nm were measured with a Versa Max spectrophotometer (Molecular Diagnostics).

Nc1nc2c(ncn2C2OC3COP(=O)(O)OC4C(O)C(COP(=O)(O)OC3C2O)OC4n2cnc3c(=O)[nH]c(N)nc32)c(=O)[nH]1 (stereo not shown) [ML-CDG, cyclic-[G(2′,5′)pG(3′,5′)p]]
OVA-specific CD8 immune responses ([1]; 5 μg or 25 μg in 2% squalene-and-water with 10 μg ovalbumin, day 7, FIG. 16): significantly higher than responses induced by unstimulated controls and by a no CDN control group | OVA-specific CD8 T cell response, wild-type mice ([1]; 25 μg in 2% squalene-and-water with 10 μg ovalbumin, day 7, FIG. 17): induces significant OVA257-264 immune responses compared to unstimulated control and a no CDN control | secretion of IFN-γ ([2]; 5 μM and 0.5 μM, CBA, FIG. 9(c)): higher levels of IFN-γ than cyclic [G(3′,5′)pG(3′,5′)p] at the same doses, and higher levels than the ISD and Poly I:C controls | levels of secreted IFN-α ([2]; 5 μM, CBA, FIG. 9(a)): higher than cyclic [G(3′,5′)pG(3′,5′)p] at the same or lower dose | levels of IFN-β ([2]; 5 μM, ELISA, FIG. 9(b)): higher than with cyclic [G(3′,5′)pG(3′,5′)p] induced levels, as well as for the ISD and Poly I:C controls | OVA-specific CD8 T cell response, goldenticket mice [3]: not significantly different than the OVA-specific responses induced by a control formulation that does not include CDN | gene expression for interferon gamma (IFNG) [4]: significantly higher level | gene expression of interferon alpha 2 (IFNA2) [4]: significantly higher | gene expression of interferon beta 1 (IFNB1) [4]: significantly higher | levels of IFN-β (type I interferon protein levels) [5]: significantly higher levels of IFN-β than cyclic [G(3′,5′)pG(3′,5′)p]
